Where “and” joins values, the source holds several entries; their conditions need not be identical. Equal entries are not always repeated. Numbered stars: 1 amine (or outer) side, 2 acyl side, 3 side chain; on linkers, the order of the positions; unused ones are H or OH. Bridge positions count the residues as written; N and C are the ends. Square brackets hold non-standard residues; d marks the D form. Ends that are not written are not given here. 1Nal = N[C@@H](Cc1cccc2ccccc12)C(=O)O; TBMB = c1c(C[*:1])cc(C[*:3])cc1C[*:2]; Tle = CC(C)(C)[C@H](N)C(=O)O; βAla = NCCC(=O)O; Sar = CNCC(=O)O
System: HT1080 xenograft
Assay: In vivo efficacy test in HT1080 xenograft in BALB/c nude mice (Example 1)
Procedure: [table] • Species: Mus Musculus • Strain: […] Shanghai LC Laboratory Animal Co., LTD. […] The tumor cells were routinely subcultured twice weekly by trypsin-EDTA treatment. The cells growing in an exponential growth phase were harvested and counted for tumor inoculation. […] The test article administration and the animal numbers in each group were shown in the experimental design table. […] All the procedures related to animal handling, care and the treatment in the study were performed according to the guidelines approved by the Institutional Animal Care and Use Committee (IACUC) of WuXi AppTec, following the guidance of the Association for Assessment and Accreditation of Laboratory Animal Care (AAALAC). At the time of routine monitoring, the animals were daily checked for any effects of tumor growth and treatments on normal behavior such as mobility, food and water consumption (by looking only), body weight gain/loss, eye/hair matting and any other abnormal effect as stated in the protocol. Death and observed clinical signs were recorded on the basis of the numbers of animals within each subset. The major endpoint was to see if the tumor growth could be delayed or mice could be cured. […] The tumor size was then used for calculations of T/C value. The T/C value (in percent) is an indication of antitumor effectiveness; T and C are the mean volumes of the treated and control groups, respectively, on a given day. TGI was calculated for each group using the formula: […] Ti is the average tumor volume of a treatment group on a given day, TO is the average tumor volume of the treatment group on the day of treatment start, Vi is the average tumor volume of the vehicle control group on the same day with Ti, and VO is the average tumor volume of the vehicle group on the day of treatment start. Summary statistics, including mean and the standard error of the mean (SEM), are provided for the tumor volume of each group at each time point. Statistical analysis of difference in tumor volume among the groups was conducted on the data obtained at the best therapeutic time point after the final dose. A one-way ANOVA was performed to compare tumor volume among groups, and when a significant F-statistics (a ratio of treatment variance to the error variance) was obtained, comparisons between groups were carried out with Games-Howell test. All data were analyzed using Prism.

BT17BDC70: Reference bicyclic peptide drug conjugate (Tet-MMAE); BICY comprises βAla-Sar10-A-(SEQ ID NO: 1) ([βAla][Sar][Sar][Sar][Sar][Sar][Sar][Sar][Sar][Sar][Sar]AC[dA]NE[1Nal][dA]CEDFYD[Tle]C-NH2; linker 13-19-26 via TBMB; also: Tet-MMAE conjugate)
Antitumor activity (in words) (0.1 mg/kg biw): did not produce significant antitumor activity
Antitumor activity (in words) (0.3 mg/kg biw): did not produce significant antitumor activity
Tumor volume (mean ± SEM) (0.1 mpk iv biw, day 0 after the start of treatment): 170 ± 21 mm^3
Tumor volume (mean ± SEM) (0.1 mpk iv biw, day 2): 400 ± 45 mm^3
Tumor volume (mean ± SEM) (0.1 mpk iv biw, day 4): 557 ± 23 mm^3
Tumor volume (mean ± SEM) (0.1 mpk iv biw, day 7): 1017 ± 180 mm^3
Tumor volume (mean ± SEM) (0.1 mpk iv biw, day 9): 1102 ± 295 mm^3
Tumor volume (mean ± SEM) (0.1 mpk iv biw, day 11): 1133 ± 203 mm^3
T/C (0.1 mpk iv biw, day 14): 129.9%
TGI (0.1 mpk iv biw, day 14): −36.3%
Tumor volume (mean ± SEM) (0.1 mpk iv biw, day 14): 1315 mm^3 and 1315 ± 287 mm^3
Tumor volume (mean ± SEM) (0.3 mpk iv biw, day 0 after the start of treatment): 170 ± 27 mm^3
Tumor volume (mean ± SEM) (0.3 mpk iv biw, day 2): 371 ± 63 mm^3
Tumor volume (mean ± SEM) (0.3 mpk iv biw, day 4): 501 ± 91 mm^3
Tumor volume (mean ± SEM) (0.3 mpk iv biw, day 7): 703 ± 69 mm^3
Tumor volume (mean ± SEM) (0.3 mpk iv biw, day 9): 695 ± 60 mm^3
Tumor volume (mean ± SEM) (0.3 mpk iv biw, day 11): 745 ± 60 mm^3
T/C (0.3 mpk iv biw, day 14): 89.2%
TGI (0.3 mpk iv biw, day 14): 12.8%
Tumor volume (mean ± SEM) (0.3 mpk iv biw, day 14): 903 mm^3 and 903 ± 67 mm^3
Antitumor activity (in words) (over all doses tested): did not produce significant antitumor activity
